Test results taken from paper PMC8307506, “Identification of Dihydromyricetin and Metabolites in Serum and Brain Associated with Acute Anti-Ethanol Intoxicating Effects in Mice” (International Journal of Molecular Sciences, 2021).

How the values were obtained:
C57BL/6J mice = assay: Ethanol-induced loss of righting reflex (LORR); format: in vivo
Description: Eight-week-old male and female C57BL/6J mice (Jackson’s Laboratories, Bar Harbor, ME, USA) were housed 4 mice to a cage (separated by sex) and maintained on 12-h light, 12-h dark cycles (lights on at 0700 h) in the animal facility at the Department of Animal Sciences, Rutgers University. Following 1-week acclimation, animals were given ad libitum access to water and a polyphenol-free diet (PFD; 3.82 kcal/g, 10% fat, 20% protein, 70% carbohydrate; D12450H; Research Diets, Inc., New Brunswick, NJ, USA) for at least 10 days. For PK studies, after an overnight fast, mice were administered 50 mg/kg DHM (dissolved in 0.9% saline with 10% DMSO) by either IP injection or oral gavage. […] Duration of LORR was determined by ability to return upright 3 times within 30 s. To determine whether ethanol-induced tolerance developed, one week (Week 1; Baseline) prior to the 6-week repeated DHM dosing study all mice were oral dose with ethanol (5 g/kg) without any IP injection and LORR was measured. […]
Pharmacokinetic parameters were calculated using noncompartmental analysis. Elimination half-life (T1/2) was calculated with R software from the linear regression of the terminal phase of the log serum concentration-time curve. The AUC0→24 was calculated with OriginLab software by trapezoidal analysis of the serum concentration-time plot. Cmax and Tmax were determined directly from observed data. Data are expressed as mean ± SEM. Statistical significance between AUC0→24 among test groups was calculated with an independent t-test (GraphPad software, San Diego, CA, USA). Time to LORR was analyzed by repeated measured ANOVA. Tolerance was determined by mean split in LORR response and confirmed with paired t-test (Week 1 vs. Week 8). Statistical significance of serum concentrations for individual time points was calculated using a two-way analysis of variance (ANOVA) analysis. […] Statistical significance of electrophysiology results compound GABAergic modulation was determined using a paired t-test (Vehicle control vs. Compound, GraphPad software, San Diego CA, USA). p < 0.05 was considered significant.

[1] = Quantification of DHM in brain samples; format: in vivo, mice; details: for Brain Concentration 15 min post DHM: mean ± SEM
Description: Eight-week-old male and female C57BL/6J mice (Jackson’s Laboratories, Bar Harbor, ME, USA) were housed 4 mice to a cage (separated by sex) and maintained on 12-h light, 12-h dark cycles (lights on at 0700 h) in the animal facility at the Department of Animal Sciences, Rutgers University. Following 1-week acclimation, animals were given ad libitum access to water and a polyphenol-free diet (PFD; 3.82 kcal/g, 10% fat, 20% protein, 70% carbohydrate; D12450H; Research Diets, Inc., New Brunswick, NJ, USA) for at least 10 days. For PK studies, after an overnight fast, mice were administered 50 mg/kg DHM (dissolved in 0.9% saline with 10% DMSO) by either IP injection or oral gavage. Oral gavage was performed using single-use, sterile plastic feeding tubes for mice (20 ga × 30 mm; cat# FTP-20-30, Instech Laboratories, (Plymouth Meeting, PA, USA). Mice were deeply anesthetized with 5% isoflurane mixed with oxygen, and blood was collected by cardiac puncture. Following cardiac puncture, animals were exsanguinated and transcardial perfusion with 0.9% saline was performed to ensure blood removal from the brain tissue. Blood and brain samples were collected from a total of 85 mice at 0.25, 0.75, 1.5, 3, 6, 12, 24 h (3–4 mice for each sex and timepoint). Tissues were immediately homogenized with 0.2% formic acid at 1:2 (w/v), and frozen at −80 °C until analysis. Blood was centrifuged at 3000× g for 10 min at 4 °C to isolate serum. For efficacy studies, mice (n = 8/sex) were fasted at 5 h prior to Ethanol gavage 5 g/kg (37% Ethanol in water). DHM 50 mg/kg IP (dissolved in 0.9% saline with 10% DMSO) was administered at 0, 15, 45, 90 and 180 min prior to Ethanol oral gavage. Each mouse was tested at each time point 7 days apart over 6-week period. At the time of Ethanol gavage, mice were placed in oversized conical holders (L: 152 mm X W: 37 mm) and observed for ability to return upright upon being placed in a supine position. Duration of LORR was determined by ability to return upright 3 times within 30 s. To determine whether ethanol-induced tolerance developed, one week (Week 1; Baseline) prior to the 6-week repeated DHM dosing study all mice were oral dose with ethanol (5 g/kg) without any IP injection and LORR was measured. Mice were then re-tested in a similar fashion with oral ethanol 1 week after the DHM 6-week period (Week 8; Post). […] All animal studies were approved by the Institutional Animal Care and Use Committee of Rutgers University (Bello; PROTO999900014, OLAW #A3262-01, 15 March 2017) and complied with NIH Guide for the Care and Use of Laboratory Animals.
Whole brain samples were homogenized in FA. All brain homogenates were stored at −80 °C and conditioned to room temperature prior to analysis. An aliquot of 300 µL of brain homogenate was added to 50 µL IS solution (417 ng/mL in EtOAc) and 500 µL of EtOAc in an Eppendorf tube. Samples were then vortexed for 30 s and sonicated for 1 min. Samples were centrifuged for 2 min at 3000× g and the supernatant transferred to a glass vial with 10 µL of 2% ascorbic acid in methanol. Samples were extracted two more times with 500 µL EtOAc and the supernatant transferred to the corresponding vial and dried under vacuum. Each sample was then reconstituted with 100 µL of 45% MeOH with 0.1% FA, centrifuged, and aliquoted into an HPLC vial for analysis.
An Agilent 1290 Infinity II UPLC system interfaced with an Agilent 6470 Triple Quadrupole Mass Spectrometer with an electrospray ionization source (Agilent Technology, Palo Alto, CA, USA) was used for sample analysis. An Waters Acquity UPLC BEH C8 column (2.1 × 150 mm, 1.7 μm) (Milford, MA, USA) column with a VanGuard Acquity C8 guard column (2.1 × 5 mm, 1.7 μm) (Milford, MA, USA) was used for chromatographic separation. The binary mobile phases consisted of water with 0.1% FA (phase A) and acetonitrile (ACN) with 0.1% formic acid (phase B). The flow rate was set at 0.450 mL/min. […]

[2] = parameters: method as in PMID 27951743; details: rats; cited from earlier work
[3] = parameters: method as in PMID 29969512; details: cited from earlier work
[4] = parameters: method as in PMID 28114854; details: cited from earlier work
[5] = parameters: method as in PMID 28534405; details: Sprague Dawley rats, 100 mg/kg PO; cited from earlier work

Concentration in brain tissue ([1]; 15 min post DHM 50 mg/kg PO or IP, male and female mice, range over groups): 50.9 to 861.5 nmol/g
Detection of DHM in brain samples ([1]; 45 min or longer post PO or IP administration of DHM 50 mg/kg): not detected
Brain Concentration 15 min post DHM ([1]; female mice, DHM 50 mg/kg IP): 864 ± 220 nmol/g
Brain Concentration 15 min post DHM ([1]; female mice, DHM 50 mg/kg PO): 50.9 ± 2.6 nmol/g
Brain Concentration 15 min post DHM ([1]; male mice, DHM 50 mg/kg IP): 672 ± 85 nmol/g
Brain Concentration 15 min post DHM ([1]; male mice, DHM 50 mg/kg PO): 423 ± 66 nmol/g
Structure (SMILES): O=C1c2c(O)cc(O)cc2O[C@H](c2cc(O)c(O)c(O)c2)[C@H]1O [DHM, Dihydromyricetin]
ethanol-induced loss of righting reflex (C57BL/6J mice; C57BL/6J mice, DHM 50 mg/kg IP 0 or 15 min prior to ethanol PO 5 g/kg): significantly reduced
LORR compared with vehicle treated mice (C57BL/6J mice; female mice, DHM 50 mg/kg IP at time 0 and 45 min before oral ethanol 5 g/kg, p < 0.05): reducing LORR
LORR (C57BL/6J mice; responsive mice (5 males/3 females), DHM 50 mg/kg IP at time 0 and 15 min prior to ethanol PO, p < 0.05): demonstrated a reduction in LORR
oral absolute bioavailability [2]: 4.02%
cellular permeability [3]: 1.84 ×10⁻⁶ cm/s
stability in acidic environments ([4]; acidic environments, similar to upper GI tract): stable
stability in solutions with pH > 6 ([4]; pH > 6): unstable
time DHM detected in brain tissue post administration [5]: up to 12 h
